# Measurements reported in paper PMC7827085 (Pharmaceutics, 2021).
# Read-outs that look alike come from different tables or passages of the source.
# Experiments:
# ABCB1/MDR1/Pgp [1] = biological target: T1, ABCB1/MDR1/Pgp (Homo sapiens, UniProt P08183); experiment: in vitro
# ABCC1/MRP1 = ABCC1/MRP1 (Homo sapiens, UniProt P33527); experiment: in vitro
# OATP1A2 [2] = biological target: T2, OATP1A2 (Homo sapiens, UniProt P46721); experiment: in vitro; conditions: A431 cells overexpressing OATP1A2, pH 7, probe sulforhodamine 101, 0.5 µM
# T2 sequence (P46721 1-670): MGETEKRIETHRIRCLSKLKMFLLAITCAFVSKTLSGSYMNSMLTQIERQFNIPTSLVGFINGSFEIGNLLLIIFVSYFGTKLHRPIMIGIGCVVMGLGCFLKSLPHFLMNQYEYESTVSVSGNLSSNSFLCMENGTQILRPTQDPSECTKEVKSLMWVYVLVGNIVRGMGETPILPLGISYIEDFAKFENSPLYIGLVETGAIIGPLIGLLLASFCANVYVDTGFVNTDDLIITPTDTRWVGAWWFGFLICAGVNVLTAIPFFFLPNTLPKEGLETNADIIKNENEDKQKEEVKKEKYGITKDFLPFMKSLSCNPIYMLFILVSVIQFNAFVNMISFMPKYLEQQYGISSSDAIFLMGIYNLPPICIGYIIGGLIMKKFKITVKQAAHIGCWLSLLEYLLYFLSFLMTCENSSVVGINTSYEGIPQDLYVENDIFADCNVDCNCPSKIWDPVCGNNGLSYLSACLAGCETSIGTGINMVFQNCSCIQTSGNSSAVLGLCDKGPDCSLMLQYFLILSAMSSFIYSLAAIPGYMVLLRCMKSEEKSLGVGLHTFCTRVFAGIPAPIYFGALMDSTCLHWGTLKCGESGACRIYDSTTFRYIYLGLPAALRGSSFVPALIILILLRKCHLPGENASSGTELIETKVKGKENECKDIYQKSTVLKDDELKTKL
# OATP2B1 [3] = biological target: T3, OATP2B1 (Homo sapiens, UniProt O94956); conditions: A431-OATP2B1 cells, pyranine uptake
# T3 sequence (O94956 1-709): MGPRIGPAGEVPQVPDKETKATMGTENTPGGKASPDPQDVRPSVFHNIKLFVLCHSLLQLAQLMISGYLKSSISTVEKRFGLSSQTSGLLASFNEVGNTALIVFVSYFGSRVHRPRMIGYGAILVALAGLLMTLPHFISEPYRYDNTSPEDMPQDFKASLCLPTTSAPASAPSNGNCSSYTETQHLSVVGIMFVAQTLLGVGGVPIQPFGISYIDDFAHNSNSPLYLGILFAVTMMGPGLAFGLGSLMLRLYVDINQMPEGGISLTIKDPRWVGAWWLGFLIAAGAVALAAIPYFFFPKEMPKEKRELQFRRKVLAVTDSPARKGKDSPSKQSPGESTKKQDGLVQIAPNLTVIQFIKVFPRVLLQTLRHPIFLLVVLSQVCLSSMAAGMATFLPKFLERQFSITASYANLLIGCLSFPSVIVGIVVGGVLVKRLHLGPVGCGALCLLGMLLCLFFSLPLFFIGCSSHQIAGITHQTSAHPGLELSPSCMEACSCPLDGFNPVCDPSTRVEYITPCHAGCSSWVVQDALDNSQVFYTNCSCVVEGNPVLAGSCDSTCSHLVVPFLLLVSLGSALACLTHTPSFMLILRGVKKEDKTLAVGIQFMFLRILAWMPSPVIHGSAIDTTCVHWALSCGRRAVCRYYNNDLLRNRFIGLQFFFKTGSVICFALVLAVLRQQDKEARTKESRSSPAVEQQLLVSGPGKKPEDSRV
# OATP2B1 [4] = biological target: T3, OATP2B1; experiment: in vitro; conditions: A431 cells overexpressing OATP2B1, pH 5.5, probe pyranine, 20 µM
# OATP1A2 [5] = biological target: T2, OATP1A2; conditions: based on the IC50 values
# OATP1A2 [6] = biological target: T2, OATP1A2; experiment: cell-based
# OATP2B1 [7] = biological target: T3, OATP2B1; experiment: cell-based
# ABCG2/BCRP = biological target: T4, ABCG2/BCRP (Homo sapiens, UniProt Q9UNQ0); experiment: ABCG2-ATPase activity in Sf9 membrane vesicles; assay type: biochemical; design: expressed in transfected cells; host or cells: PLB-985; conditions: Sf9/ABCG2 membranes
# T4 sequence (Q9UNQ0 1-655): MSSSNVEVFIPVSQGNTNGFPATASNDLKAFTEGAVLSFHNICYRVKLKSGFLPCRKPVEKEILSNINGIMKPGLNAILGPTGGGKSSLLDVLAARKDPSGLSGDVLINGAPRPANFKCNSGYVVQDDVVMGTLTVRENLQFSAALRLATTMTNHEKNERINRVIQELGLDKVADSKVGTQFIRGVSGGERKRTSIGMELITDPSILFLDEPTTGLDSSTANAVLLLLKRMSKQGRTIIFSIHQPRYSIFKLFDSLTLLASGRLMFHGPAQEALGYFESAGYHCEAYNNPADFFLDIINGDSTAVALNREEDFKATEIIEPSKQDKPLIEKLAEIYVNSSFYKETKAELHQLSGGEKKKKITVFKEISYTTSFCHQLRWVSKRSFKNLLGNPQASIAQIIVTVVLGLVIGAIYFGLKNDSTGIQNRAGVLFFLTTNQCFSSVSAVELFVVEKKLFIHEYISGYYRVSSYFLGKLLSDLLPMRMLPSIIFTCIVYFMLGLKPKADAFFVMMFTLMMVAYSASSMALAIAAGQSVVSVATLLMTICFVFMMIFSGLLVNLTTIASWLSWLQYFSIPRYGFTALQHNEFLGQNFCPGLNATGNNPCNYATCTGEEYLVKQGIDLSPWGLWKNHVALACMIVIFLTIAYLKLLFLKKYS
# Protocol: ABC transporter ATPase activity was measured in Sf9 membrane vesicles containing the respective human ABC transporters [46, 47, 48, 49, 50]. For ABCG2/BCRP, the cholesterol level in the vesicles was increased to the level of mammalian cell membranes for full activity [49]. For ABCB1/Pgp 20 μg/150 μL and for ABCG2/BCRP 10 μg/150 μL, vesicles were incubated with 3 mM Mg-ATP for 25 min at 37 °C. The test drugs were dissolved in DMSO and 1 µL was added to the samples. The ABC transporter-related ATPase activity was determined and reference activators (50 µM verapamil for ABCB1 and 5 µM quercetin for ABCG2) served as controls.
# Drug-stimulated ATPase activity of the ABCG2 transporter was also measured in the present study.
# ABCB1/MDR1/Pgp [8] = biological target: T1, ABCB1/MDR1/Pgp; experiment: biochemical; conditions: Estimated Transporter Inhibition IC50, ABCB1 vesicular assay, ATP-dependent NMQ uptake, HEK-293/ABCB1 inverted membrane vesicles; '-' = no inhibition
# [9] = cited from earlier work
# T1 sequence (P08183 whole entry): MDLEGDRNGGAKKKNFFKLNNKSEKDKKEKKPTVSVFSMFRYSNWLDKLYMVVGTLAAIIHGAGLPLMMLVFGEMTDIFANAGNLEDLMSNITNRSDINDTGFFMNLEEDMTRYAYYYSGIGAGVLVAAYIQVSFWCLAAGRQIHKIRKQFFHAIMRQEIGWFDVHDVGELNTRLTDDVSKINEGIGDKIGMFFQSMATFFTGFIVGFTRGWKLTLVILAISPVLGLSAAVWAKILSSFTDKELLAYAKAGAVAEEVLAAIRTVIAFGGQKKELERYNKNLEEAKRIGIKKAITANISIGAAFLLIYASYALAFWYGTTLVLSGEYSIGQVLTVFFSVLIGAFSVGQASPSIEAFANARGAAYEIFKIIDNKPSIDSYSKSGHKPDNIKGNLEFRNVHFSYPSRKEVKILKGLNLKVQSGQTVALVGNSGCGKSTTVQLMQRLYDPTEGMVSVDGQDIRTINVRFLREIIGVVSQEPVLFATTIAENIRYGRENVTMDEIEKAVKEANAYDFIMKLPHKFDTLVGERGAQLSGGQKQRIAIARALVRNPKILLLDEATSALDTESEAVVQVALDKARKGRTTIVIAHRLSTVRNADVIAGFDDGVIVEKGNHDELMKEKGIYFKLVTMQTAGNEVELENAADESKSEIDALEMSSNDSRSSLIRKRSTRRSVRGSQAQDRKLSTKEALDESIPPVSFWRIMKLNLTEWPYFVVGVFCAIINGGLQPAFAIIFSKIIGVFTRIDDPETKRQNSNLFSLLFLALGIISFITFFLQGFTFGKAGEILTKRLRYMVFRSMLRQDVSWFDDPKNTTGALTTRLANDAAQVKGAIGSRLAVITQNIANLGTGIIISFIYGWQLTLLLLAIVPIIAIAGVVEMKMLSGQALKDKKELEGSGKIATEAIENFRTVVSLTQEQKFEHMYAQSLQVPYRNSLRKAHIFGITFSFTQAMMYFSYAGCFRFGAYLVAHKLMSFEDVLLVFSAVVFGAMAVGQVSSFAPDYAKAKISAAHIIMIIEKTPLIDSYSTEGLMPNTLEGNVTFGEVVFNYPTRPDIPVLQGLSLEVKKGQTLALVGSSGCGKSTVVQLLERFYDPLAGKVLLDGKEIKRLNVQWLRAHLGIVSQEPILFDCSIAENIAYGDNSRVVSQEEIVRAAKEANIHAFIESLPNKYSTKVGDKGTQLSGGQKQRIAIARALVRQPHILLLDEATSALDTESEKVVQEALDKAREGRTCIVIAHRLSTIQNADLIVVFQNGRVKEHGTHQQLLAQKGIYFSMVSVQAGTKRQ
# Sequence of ABCC1/MRP1 (P33527 whole entry): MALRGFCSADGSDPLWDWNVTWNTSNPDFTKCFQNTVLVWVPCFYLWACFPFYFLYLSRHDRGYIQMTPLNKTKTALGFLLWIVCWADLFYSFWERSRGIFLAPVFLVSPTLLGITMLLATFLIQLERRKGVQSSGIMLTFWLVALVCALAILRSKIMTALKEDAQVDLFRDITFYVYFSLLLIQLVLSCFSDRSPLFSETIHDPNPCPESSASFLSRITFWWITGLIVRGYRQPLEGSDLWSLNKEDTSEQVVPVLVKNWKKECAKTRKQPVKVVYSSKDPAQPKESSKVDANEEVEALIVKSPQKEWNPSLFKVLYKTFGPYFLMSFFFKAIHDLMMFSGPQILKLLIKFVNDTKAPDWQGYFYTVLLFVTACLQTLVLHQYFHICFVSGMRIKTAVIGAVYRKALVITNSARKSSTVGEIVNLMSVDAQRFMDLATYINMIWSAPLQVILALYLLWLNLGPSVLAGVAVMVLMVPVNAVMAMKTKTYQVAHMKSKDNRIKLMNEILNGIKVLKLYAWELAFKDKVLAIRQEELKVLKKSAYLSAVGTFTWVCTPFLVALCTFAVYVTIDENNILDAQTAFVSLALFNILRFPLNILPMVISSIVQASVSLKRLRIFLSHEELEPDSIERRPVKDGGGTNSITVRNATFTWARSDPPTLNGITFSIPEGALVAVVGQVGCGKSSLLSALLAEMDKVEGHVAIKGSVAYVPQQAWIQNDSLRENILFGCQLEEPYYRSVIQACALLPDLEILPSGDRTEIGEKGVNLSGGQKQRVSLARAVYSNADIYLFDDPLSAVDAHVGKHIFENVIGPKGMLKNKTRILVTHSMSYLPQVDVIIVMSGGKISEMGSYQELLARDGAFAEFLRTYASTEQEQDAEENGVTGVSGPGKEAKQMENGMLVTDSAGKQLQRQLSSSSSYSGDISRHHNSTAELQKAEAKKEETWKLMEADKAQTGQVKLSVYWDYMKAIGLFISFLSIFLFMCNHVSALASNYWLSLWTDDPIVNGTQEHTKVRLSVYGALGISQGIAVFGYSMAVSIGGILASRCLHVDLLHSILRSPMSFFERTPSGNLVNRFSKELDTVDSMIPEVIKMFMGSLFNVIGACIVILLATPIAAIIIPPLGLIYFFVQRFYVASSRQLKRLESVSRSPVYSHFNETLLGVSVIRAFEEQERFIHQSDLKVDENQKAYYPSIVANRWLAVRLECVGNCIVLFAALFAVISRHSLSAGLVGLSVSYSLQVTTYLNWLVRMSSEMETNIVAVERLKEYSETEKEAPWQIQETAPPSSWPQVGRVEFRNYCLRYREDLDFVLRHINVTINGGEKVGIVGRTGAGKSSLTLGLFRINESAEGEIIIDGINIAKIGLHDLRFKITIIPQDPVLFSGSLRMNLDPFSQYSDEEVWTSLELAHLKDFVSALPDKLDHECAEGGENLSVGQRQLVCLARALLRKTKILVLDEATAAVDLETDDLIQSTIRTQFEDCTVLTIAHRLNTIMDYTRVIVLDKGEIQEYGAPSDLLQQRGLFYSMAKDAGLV
SMILES,"IC50 at 1 min (ABCB1/MDR1/Pgp [1]; probe 3H-N-methyl-quinidine (NMQ), 1 µM) [µM]","IC50 at 3 min (ABCC1/MRP1; inverted membrane vesicles from Sf9 cells expressing ABCC1, probe 3H-estradiol-17b-glucuronide (ETGB), 0.2 µM) [µM]",IC50 at 10 min (OATP1A2 [2]) [µM],Effect on OATP2B1 activity (in words) (OATP2B1 [3]),IC50 at 15 min (OATP2B1 [4]) [µM],"IC50 at 1 min (ABCB1/MDR1/Pgp [1]; Estimated Transporter Inhibition IC50, ABCB1 vesicular assay, ATP-dependent NMQ uptake, HEK-293/ABCB1 inverted membrane vesicles, '-' = no inhibition) [µM]",IC50 at 3 min (ABCC1/MRP1) [µM],"Fold lower affinity for OATP1A2 than lopinavir, ritonavir, remdesivir and ivermectin (OATP1A2 [5])",IC50 (OATP1A2 [6]) [µM],IC50 (OATP2B1 [7]) [µM],Concentration at which baseline ABCG2-ATPase activity was inhibited (ABCG2/BCRP) [µmol],"Effect on baseline ABCG2-ATPase activity (in words) (ABCG2/BCRP; ivermectin, ritonavir, lopinavir at low micromolar, remdesivir at higher concentrations)",IC50 (ABCB1/MDR1/Pgp [8]) [µM],"Plasma concentration, peak values [9] [µM]","Reported peak plasma concentration ([9]; reported, reference not given)"
NC(=O)c1nc(F)c[nH]c1=O [favipiravir],> 50,> 50,> 50,no interaction,> 50,–,–,–,–,–,–,–,–,–,–
CCN(CCO)CCCC(C)Nc1ccnc2cc(Cl)ccc12 (stereo not drawn) [hydroxychloroquine],–,–,–,only modest inhibition,–,> 50,> 50,3–10 fold,18.9,84,–,–,–,–,–
CCC(CC)COC(=O)[C@H](C)N[P@](=O)(OC[C@H]1O[C@@](C#N)(c2ccc3c(N)ncnn23)[C@H](O)[C@@H]1O)Oc1ccccc1 [remdesivir],–,–,–,–,–,–,–,–,3.8,3.8,20 to 50,significantly inhibited,> 20,3 to 5,about 5 μM
